From patent US10670605B2, “Cysteine reactive probes and uses thereof” (The Scripps Research Institute, priority 2015, dated 2020) come the findings set out here.

Assay in all cases: Competitive isoTOP-ABPP in situ (fragment-treated cells)
What all share (assay type): cell-based

The target of experiment [1] is cysteines in MDA-MB-231 and Ramos cells (Homo sapiens, UniProt P52948). The conditions noted are these: 200 μM, insitu, 231.
The target in experiment [2] is cysteines in MDA-MB-231 and Ramos cells (Homo sapiens, UniProt Q14137). Conditions: 200 μM, insitu.
The target of experiment [3] is T1, cysteines in MDA-MB-231 and Ramos cells (Homo sapiens, UniProt Q96F86).
T1 sequence (Q96F86 1-508): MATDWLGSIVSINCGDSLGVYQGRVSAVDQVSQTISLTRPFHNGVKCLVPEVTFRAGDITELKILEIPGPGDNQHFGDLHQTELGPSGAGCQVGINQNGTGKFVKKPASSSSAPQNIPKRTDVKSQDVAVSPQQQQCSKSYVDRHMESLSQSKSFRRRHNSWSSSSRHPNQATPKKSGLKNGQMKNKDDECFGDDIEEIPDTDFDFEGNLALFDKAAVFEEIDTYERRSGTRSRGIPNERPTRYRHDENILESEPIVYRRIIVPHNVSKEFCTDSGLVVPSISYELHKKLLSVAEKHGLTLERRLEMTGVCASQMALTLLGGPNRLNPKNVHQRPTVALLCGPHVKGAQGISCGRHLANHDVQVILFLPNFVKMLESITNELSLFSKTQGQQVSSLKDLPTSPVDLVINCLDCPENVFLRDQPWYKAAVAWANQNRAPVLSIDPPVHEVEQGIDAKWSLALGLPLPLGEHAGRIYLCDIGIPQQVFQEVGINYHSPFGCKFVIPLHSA
The conditions noted are these: 200 μM, insitu.

For experiment [4], the target named is T2, cysteines in MDA-MB-231 and Ramos cells (Homo sapiens, UniProt Q96P48).
T2 sequence (Q96P48 1-1450): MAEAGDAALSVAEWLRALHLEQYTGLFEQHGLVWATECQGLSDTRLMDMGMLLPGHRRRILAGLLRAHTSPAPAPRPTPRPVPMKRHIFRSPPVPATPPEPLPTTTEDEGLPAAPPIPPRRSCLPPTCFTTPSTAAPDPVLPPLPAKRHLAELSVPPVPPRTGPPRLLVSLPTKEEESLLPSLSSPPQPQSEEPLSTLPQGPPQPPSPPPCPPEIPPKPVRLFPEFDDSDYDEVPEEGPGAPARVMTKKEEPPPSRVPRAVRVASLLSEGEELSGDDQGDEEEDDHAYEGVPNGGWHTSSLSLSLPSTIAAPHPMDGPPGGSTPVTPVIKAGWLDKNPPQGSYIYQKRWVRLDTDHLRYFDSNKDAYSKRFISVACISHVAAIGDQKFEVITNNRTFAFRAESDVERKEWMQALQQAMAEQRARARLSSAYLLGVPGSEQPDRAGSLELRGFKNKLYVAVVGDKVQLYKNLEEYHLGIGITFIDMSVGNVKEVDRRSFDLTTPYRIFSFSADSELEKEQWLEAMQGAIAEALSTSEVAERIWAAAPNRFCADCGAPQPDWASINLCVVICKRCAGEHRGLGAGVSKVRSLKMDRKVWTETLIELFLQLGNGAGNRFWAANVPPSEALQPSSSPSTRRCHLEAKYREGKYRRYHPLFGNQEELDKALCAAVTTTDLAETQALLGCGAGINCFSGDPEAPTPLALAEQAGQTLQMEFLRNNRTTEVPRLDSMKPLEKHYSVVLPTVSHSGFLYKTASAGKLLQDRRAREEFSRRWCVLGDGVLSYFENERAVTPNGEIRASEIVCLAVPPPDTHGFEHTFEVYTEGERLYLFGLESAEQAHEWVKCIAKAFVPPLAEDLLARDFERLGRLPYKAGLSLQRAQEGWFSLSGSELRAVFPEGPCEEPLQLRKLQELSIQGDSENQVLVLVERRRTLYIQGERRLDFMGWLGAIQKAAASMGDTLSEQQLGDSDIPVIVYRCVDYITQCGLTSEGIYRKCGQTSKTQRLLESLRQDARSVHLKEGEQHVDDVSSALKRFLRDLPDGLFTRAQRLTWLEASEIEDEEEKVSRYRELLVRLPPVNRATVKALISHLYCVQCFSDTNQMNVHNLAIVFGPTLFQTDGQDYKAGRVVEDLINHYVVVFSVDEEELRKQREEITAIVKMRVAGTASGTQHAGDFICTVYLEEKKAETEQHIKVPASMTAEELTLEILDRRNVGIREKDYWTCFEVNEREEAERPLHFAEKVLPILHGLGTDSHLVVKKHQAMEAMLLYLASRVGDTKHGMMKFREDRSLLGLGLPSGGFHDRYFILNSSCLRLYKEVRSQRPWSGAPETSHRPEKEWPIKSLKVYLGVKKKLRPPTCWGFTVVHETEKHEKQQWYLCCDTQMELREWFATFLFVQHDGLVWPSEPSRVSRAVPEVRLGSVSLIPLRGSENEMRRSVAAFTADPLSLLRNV
The conditions noted are these: 200 μM, insitu.

Experiment [5] has as its target cysteines in MDA-MB-231 and Ramos cells (Homo sapiens, UniProt O75362). The conditions noted are these: 200 μM, insitu.
Experiment [6] addresses cysteines in MDA-MB-231 and Ramos cells (Homo sapiens, UniProt Q14790). Conditions: 200 μM, insitu.
Experiment [7] concerns the target T3, cysteines in MDA-MB-231 and Ramos cells (Homo sapiens, UniProt Q9NPH0).
T3 sequence (Q9NPH0 33-428): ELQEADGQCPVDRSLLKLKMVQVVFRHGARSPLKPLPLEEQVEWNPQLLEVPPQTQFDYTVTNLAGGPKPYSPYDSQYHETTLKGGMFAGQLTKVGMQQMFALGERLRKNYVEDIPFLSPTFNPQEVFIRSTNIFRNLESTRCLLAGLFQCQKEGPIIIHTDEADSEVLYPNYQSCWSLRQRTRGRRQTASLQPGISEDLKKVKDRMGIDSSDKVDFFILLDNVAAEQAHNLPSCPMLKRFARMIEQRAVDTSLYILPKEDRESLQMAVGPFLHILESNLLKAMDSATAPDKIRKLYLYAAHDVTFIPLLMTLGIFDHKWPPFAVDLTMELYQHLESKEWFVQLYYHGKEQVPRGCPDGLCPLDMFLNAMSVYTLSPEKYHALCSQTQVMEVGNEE
Conditions: 200 μM, insitu.

For experiment [8], the target named is T4, cysteines in MDA-MB-231 and Ramos cells (Homo sapiens, UniProt Q96C19).
T4 sequence (Q96C19 1-240): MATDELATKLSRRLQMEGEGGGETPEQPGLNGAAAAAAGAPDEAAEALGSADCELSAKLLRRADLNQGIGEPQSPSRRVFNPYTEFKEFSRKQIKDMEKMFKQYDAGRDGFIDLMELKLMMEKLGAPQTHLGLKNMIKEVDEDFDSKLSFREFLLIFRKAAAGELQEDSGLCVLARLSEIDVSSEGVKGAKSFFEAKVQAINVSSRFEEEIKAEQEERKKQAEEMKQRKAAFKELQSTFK
The conditions noted are these: 200 μM, insitu.

Each structure is given as a SMILES string.

Sequence of cysteines in MDA-MB-231 and Ramos cells (Homo sapiens, UniProt Q14137) (Q14137 whole entry): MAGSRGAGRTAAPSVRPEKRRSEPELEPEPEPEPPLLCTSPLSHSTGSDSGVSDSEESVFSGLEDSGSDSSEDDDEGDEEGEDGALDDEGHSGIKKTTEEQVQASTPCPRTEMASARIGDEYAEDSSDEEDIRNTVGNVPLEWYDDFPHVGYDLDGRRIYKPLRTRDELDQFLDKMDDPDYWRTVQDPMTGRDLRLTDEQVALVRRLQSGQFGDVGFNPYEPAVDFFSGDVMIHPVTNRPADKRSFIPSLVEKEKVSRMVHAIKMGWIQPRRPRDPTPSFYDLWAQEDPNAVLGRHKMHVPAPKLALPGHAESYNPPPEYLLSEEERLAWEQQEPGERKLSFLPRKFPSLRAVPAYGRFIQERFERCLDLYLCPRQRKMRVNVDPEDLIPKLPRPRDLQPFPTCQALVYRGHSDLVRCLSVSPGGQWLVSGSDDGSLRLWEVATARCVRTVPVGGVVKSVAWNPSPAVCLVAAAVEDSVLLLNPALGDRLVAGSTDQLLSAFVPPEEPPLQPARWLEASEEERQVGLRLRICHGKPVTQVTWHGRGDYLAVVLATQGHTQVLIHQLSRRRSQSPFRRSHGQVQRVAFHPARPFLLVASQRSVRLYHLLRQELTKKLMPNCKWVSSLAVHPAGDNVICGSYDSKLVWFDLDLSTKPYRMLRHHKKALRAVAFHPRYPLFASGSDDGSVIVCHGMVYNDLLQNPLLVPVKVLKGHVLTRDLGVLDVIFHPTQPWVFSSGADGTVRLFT
Sequence of cysteines in MDA-MB-231 and Ramos cells (Homo sapiens, UniProt O75362) (O75362 whole entry): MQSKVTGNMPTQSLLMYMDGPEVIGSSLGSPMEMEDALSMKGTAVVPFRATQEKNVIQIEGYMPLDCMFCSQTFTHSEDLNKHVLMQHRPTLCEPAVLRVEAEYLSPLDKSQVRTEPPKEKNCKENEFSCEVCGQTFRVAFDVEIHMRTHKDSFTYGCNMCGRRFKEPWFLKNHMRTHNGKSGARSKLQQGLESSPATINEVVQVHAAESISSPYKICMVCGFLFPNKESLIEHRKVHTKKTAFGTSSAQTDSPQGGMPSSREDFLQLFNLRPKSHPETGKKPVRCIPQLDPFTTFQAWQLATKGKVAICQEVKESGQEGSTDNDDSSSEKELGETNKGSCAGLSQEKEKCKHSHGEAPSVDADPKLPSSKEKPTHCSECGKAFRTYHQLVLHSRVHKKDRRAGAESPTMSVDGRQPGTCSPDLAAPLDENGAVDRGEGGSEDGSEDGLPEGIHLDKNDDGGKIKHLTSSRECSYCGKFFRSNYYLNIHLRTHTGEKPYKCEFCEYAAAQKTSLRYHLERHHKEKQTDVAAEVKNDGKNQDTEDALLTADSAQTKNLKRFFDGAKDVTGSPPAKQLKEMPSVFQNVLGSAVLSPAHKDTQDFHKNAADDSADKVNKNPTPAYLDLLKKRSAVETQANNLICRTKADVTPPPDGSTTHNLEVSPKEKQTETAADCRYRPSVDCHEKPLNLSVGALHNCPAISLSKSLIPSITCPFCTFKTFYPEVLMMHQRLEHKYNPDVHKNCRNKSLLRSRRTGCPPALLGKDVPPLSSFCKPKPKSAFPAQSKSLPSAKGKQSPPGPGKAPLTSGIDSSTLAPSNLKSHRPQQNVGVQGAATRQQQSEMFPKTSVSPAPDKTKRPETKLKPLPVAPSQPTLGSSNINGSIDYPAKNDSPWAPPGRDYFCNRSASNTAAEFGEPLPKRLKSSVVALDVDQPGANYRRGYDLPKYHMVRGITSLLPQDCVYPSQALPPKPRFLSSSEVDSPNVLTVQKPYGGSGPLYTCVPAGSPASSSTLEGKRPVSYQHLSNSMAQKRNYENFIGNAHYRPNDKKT
Sequence of cysteines in MDA-MB-231 and Ramos cells (Homo sapiens, UniProt Q14790) (Q14790 217-479): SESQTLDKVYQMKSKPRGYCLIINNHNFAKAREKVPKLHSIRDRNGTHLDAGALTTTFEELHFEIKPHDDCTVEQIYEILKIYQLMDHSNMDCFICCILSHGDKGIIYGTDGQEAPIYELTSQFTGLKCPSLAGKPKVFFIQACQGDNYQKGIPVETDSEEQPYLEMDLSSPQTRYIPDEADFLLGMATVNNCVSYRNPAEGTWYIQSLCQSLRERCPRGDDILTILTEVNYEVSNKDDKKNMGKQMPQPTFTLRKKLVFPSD
Sequence of cysteines in MDA-MB-231 and Ramos cells (Homo sapiens, UniProt P52948) (P52948 whole entry): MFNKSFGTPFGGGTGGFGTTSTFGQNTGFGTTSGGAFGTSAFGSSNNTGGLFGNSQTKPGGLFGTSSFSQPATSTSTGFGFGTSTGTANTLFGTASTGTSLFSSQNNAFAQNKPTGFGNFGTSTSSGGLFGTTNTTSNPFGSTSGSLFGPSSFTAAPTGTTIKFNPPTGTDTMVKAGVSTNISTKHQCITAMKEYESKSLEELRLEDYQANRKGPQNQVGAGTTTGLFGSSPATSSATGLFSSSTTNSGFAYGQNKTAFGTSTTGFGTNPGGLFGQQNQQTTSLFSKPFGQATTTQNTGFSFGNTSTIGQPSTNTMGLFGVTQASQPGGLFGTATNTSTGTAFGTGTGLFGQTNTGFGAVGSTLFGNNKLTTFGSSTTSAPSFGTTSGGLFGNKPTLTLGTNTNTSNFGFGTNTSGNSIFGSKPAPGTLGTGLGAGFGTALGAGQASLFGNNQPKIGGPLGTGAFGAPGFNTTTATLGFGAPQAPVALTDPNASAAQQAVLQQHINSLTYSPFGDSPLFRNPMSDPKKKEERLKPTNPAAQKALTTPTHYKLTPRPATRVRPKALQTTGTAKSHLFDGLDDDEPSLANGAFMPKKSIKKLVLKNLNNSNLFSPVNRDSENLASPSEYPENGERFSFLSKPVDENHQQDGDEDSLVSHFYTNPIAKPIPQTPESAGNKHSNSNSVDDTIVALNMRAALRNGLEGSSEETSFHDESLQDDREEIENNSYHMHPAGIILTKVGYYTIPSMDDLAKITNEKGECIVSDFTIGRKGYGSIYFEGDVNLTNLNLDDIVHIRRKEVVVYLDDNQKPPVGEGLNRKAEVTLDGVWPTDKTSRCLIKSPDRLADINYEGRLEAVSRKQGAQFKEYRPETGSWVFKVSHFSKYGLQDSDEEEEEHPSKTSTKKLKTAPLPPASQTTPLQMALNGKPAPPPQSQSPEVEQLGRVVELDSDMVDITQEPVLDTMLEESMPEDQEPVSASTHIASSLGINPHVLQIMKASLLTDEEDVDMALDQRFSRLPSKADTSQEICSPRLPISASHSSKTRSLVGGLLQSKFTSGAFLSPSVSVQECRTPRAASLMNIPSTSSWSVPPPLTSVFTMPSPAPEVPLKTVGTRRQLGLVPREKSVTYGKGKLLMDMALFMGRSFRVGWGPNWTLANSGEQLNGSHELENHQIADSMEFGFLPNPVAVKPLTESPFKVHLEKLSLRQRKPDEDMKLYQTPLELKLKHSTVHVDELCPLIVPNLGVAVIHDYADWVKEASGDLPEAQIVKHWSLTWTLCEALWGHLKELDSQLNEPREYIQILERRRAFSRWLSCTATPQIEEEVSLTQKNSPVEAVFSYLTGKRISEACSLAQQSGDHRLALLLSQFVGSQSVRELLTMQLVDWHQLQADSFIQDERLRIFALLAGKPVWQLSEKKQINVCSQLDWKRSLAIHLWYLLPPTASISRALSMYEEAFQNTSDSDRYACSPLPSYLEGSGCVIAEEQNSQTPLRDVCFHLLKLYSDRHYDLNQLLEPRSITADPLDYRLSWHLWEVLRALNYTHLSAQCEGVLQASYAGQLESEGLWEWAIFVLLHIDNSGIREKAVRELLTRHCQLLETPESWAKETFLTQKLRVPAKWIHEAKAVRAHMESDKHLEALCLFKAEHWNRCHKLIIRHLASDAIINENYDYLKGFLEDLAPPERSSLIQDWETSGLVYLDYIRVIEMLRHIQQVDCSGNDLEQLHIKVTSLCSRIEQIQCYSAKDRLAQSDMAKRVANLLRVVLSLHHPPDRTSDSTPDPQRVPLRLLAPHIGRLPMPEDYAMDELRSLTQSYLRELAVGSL

Consider `O=C(CCl)NC12CC3CC(CC(C3)C1)C2` [compound 21], for which the “isoTOP-ABPP ratio, cysteine P52948_C1312” value in experiment [1] came out at 1.1. In addition, in experiment [2] (231), the “isoTOP-ABPP ratio, cysteine Q14137_C404” value was 1.1. The “isoTOP-ABPP ratio Q96F86_C413” value in experiment [3] (231) stood at 0.8. Also, in experiment [4] (231), the “isoTOP-ABPP ratio, cysteine Q96P48_C900” value was determined as 0.7. Besides, the “isoTOP-ABPP ratio O75362_C286” value in experiment [5] (231) is 1.1. In addition, the “isoTOP-ABPP ratio Q14790_C360” value in experiment [6] (231) worked out at 0.9.
As to `CC(C)CCOCCNC(=O)CCl` [compound 27], the “isoTOP-ABPP ratio P52948_C1312” value in experiment [1] worked out at 1.3. For the same compound, the “isoTOP-ABPP ratio Q14137_C404” value in experiment [2] (231) is recorded as 0.6. In experiment [3] (231), the “isoTOP-ABPP ratio Q96F86_C413” value was 0.7. Moreover, the “isoTOP-ABPP ratio O75362_C286” value in experiment [5] (231) is given as 1.0. Also, in experiment [7] (231), the “isoTOP-ABPP ratio Q9NPH0_C267” value came out at 1.3. In experiment [6] (231), the “isoTOP-ABPP ratio Q14790_C360” value amounted to 0.4.
For `COc1ccccc1OCCNC(=O)CCl` [compound 28], the “isoTOP-ABPP ratio O75362_C286” value in experiment [5] (231) came out at 0.9.
In the case of `O=C(CCl)N1CCN(CC(=O)N2CCOCC2)CC1` [compound 29], in experiment [2] (ramos), the “isoTOP-ABPP ratio Q14137_C404” value was found to be 1.5. Moreover, the “isoTOP-ABPP ratio Q96C19_C172” value in experiment [8] (ramos) is given as 1.2. The “isoTOP-ABPP ratio Q96F86_C413” value in experiment [3] (ramos) amounted to 1.9. Further, the “isoTOP-ABPP ratio Q96P48_C900” value in experiment [4] (ramos) is on record as 1.1. For the same compound, the “isoTOP-ABPP ratio O75362_C286” value in experiment [5] (ramos) is on record as 1.0. Moreover, in experiment [7] (ramos), the “isoTOP-ABPP ratio Q9NPH0_C267” value was 2.1. Also, the “isoTOP-ABPP ratio Q14790_C360” value in experiment [6] (ramos) is 1.6.
Regarding `C=CC(=O)N(Cc1cccnc1)c1cc(C(F)(F)F)cc(C(F)(F)F)c1` [compound 31], the “isoTOP-ABPP ratio Q96C19_C172” value in experiment [8] (231) stood at 1.6. Moreover, the “isoTOP-ABPP ratio Q96F86_C413” value in experiment [3] (ramos) was found to be 1.3. The “isoTOP-ABPP ratio Q96P48_C900” value in experiment [4] (231) is 1.1. In experiment [6] (231), the “isoTOP-ABPP ratio Q14790_C360” value amounted to 0.5.
Take `C=CC(=O)Nc1cc(F)c(N2CCN(C(=O)OC(C)(C)C)CC2)c(F)c1` [compound 38]: in experiment [1], the “isoTOP-ABPP ratio P52948_C1312” value was determined as 1.3. In experiment [8] (231), the “isoTOP-ABPP ratio Q96C19_C172” value worked out at 0.7. Moreover, the “isoTOP-ABPP ratio Q14790_C360” value in experiment [6] (231) stood at 1.0.
As for `Cc1ccc(C=C(C#N)C(=O)NCCN2CCOCC2)cc1` [compound 41], the “isoTOP-ABPP ratio Q96C19_C172” value in experiment [8] (231) is 0.5. Also, in experiment [4] (231), the “isoTOP-ABPP ratio Q96P48_C900” value amounted to 0.5. Also, in experiment [5] (231), the “isoTOP-ABPP ratio O75362_C286” value turned out to be 1.0. The “isoTOP-ABPP ratio Q14790_C360” value in experiment [6] (231) is recorded as 0.5.
For the compound `CC1CCc2ccccc2N1C(=O)CCl` (stereo not shown) [compound 45], the “isoTOP-ABPP ratio Q96F86_C413” value in experiment [3] (231) turned out to be 20.0. For the same compound, in experiment [5] (231), the “isoTOP-ABPP ratio O75362_C286” value amounted to 20.0. Moreover, the “isoTOP-ABPP ratio Q9NPH0_C267” value in experiment [7] (231) turned out to be 20.0. For the same compound, the “isoTOP-ABPP ratio Q14790_C360” value in experiment [6] (231) was found to be 20.0.
Consider `O=C(CCl)Nc1cccc2ncccc12` [compound 51], for which the “isoTOP-ABPP ratio Q96C19_C172” value in experiment [8] (231) was 1.2. Also, the “isoTOP-ABPP ratio Q96F86_C413” value in experiment [3] (231) is given as 20.0.
